Laboratory results published in paper PMC10544575, “Inhibitory mechanism of vortioxetine on CYP450 enzymes in human and rat liver microsomes” (Frontiers in Pharmacology, 2023).
“Also recorded” adds a separate entry of the source.

What was measured:
Assay type in all cases: in vitro ADME
CYP2D6 [1] = target: T1, CYP2D6 (Homo sapiens, UniProt P10635); assay: Reversible inhibition kinetics (Lineweaver-Burk), CYP2D6 in HLMs; parameters: 0.20 mg/mL HLMs; from tissue; host or cells: human liver microsomes; details: dextromethorphan
T1 sequence (P10635 whole entry): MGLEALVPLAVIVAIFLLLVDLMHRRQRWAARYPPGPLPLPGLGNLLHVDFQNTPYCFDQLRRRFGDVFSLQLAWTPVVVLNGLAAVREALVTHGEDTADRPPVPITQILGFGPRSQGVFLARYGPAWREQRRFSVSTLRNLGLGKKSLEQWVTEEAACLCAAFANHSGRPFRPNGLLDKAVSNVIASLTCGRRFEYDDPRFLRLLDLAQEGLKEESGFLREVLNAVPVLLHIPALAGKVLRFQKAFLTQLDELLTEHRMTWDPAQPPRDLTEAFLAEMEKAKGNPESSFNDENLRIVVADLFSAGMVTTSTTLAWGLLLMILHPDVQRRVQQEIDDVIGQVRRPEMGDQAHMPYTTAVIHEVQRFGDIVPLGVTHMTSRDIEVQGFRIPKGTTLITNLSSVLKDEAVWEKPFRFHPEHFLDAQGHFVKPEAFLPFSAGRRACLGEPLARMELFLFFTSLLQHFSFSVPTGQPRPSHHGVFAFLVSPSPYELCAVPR
Experimental: (§1) The components of the incubation system were as follows: 0.20 mg/mL HLMs or 0.20 mg/mL RLMs, 0.1 M Tris-HCl, vortioxetine, and the probe substrates of each enzyme. In the study of Km’s (Michaelis–Menten constant) experiment, midazolam (1, 2, 5, 10, 20, 50 and 100 μM in HLMs and RLMs) corresponded to CYP3A4/3A; bupropion (10, 20, 50, 100, 200, 500, 1,000 and 2000 μM in HLMs; 1, 2, 5, 10, 20, 50, 100 and 200 μM in RLMs) corresponded to CYP2B6/2B; amodiaquine (5, 10, 20, 50, 100 and 200 μM in HLMs; 10, 20, 50, 100, 200, 500 μM in RLMs) corresponded to CYP2C8/CYP2C-1; losartan (1, 2, 5, 10, 20, 50, 100, 200 μM in HLMs; 10, 20, 50, 100, 200, 500 and 1,000 μM in RLMs) corresponded to CYP2C9/CYP2C-2; mephenytoin (20, 50, 100, 200, 500 and 1,000 μM in HLMs; 5, 10, 20, 50, 100, 200, 500 and 1,000 μM in RLMs) corresponded to CYP2C19/CYP2C-3; and dextromethorphan (1, 2, 5, 10, 20, 50 and 100 μM in HLMs and RLMs) corresponded to CYP2D6/CYP2D. […]
(§2) All experiments results were detected by UPLC-MS/MS, which equipped with a Waters Acquity UPLC system (Milford, MA, United States) and a Waters Xevo TQ-S triple quadrupole tandem mass spectrometer with an electrospray ionization source (Milford, MA, United States). […]
(§3) IC50 values and enzyme kinetic parameters were calculated by Graphpad Prism 6.0 (GraphPad software Inc., CA, United States). […] Data for each experiment were expressed as mean ± SD (n = 3).

CYP3A = assay: IC50-shift experiment, CYP3A in RLMs; details: rat, rat liver microsomes, probe midazolam; for IC50 at 30 min: midazolam 3.5 μM
CYP2C-3 = assay: IC50-shift experiment, CYP2C-3 in RLMs; details: rat, rat liver microsomes, probe mephenytoin; for IC50 at 30 min: mephenytoin 400 μM
Experimental: as §1, with “CYP2D6/CYP2D. After 5.0 min of preincubation in the shaking water bath, the reaction was started with the addition of 1.0 mM NADPH. The incubated temperature at 37°C for 30 min. After the incubation, the enzyme reaction was stopped by cooling at −80°C, and 200 μL of acetonitrile and 20 μL of internal standard diazepam (200 ng/mL) were added for protein precipitation.” for “CYP2D6/CYP2D.”
(§4) IC50-shift was used to investigate whether the drug produced time-dependent inhibition (TDI) of the enzyme. […] During the experiment, the individual substrates midazolam (4 μM), bupropion (40 μM), amodiaquine (3 μM), losartan (8 μM), mephenytoin (90 μM), and dextromethorphan (10 μM) were determined with vortioxetine IC50-shift in HLMs. […]
as §2, §3

CYP3A4 = CYP3A4 (Homo sapiens, UniProt P08684); assay: IC50-shift experiment, CYP3A4 in HLMs; parameters: 0.20 mg/mL HLMs or 0.20 mg/mL RLMs; from tissue; host or cells: human liver microsomes; details: for IC50: midazolam 4 μM
Sequence of CYP3A4 (P08684 whole entry): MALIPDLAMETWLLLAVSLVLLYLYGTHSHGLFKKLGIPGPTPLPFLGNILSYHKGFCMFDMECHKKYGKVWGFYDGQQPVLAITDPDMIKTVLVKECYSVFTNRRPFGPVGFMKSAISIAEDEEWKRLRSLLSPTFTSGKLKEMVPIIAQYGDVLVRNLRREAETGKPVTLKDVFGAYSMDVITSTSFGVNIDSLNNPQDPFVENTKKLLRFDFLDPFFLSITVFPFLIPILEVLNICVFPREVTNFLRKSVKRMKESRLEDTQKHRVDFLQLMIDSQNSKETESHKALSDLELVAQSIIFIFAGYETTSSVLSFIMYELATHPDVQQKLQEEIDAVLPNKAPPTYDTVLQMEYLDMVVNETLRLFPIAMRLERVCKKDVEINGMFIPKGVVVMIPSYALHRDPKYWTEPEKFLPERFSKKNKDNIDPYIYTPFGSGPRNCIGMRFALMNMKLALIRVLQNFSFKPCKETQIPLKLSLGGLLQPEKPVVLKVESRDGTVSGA
Experimental: as §1, with “CYP2D6/CYP2D. After 5.0 min of preincubation in the shaking water bath, the reaction was started with the addition of 1.0 mM NADPH. The incubated temperature at 37°C for 30 min. After the incubation, the enzyme reaction was stopped by cooling at −80°C, and 200 μL of acetonitrile and 20 μL of internal standard diazepam (200 ng/mL) were added for protein precipitation.” for “CYP2D6/CYP2D.”
as §4, §2, §3

CYP2D6 [2] = target: T1, CYP2D6; assay: IC50-shift experiment, CYP2D6 in HLMs; parameters: 0.20 mg/mL HLMs or 0.20 mg/mL RLMs; from tissue; host or cells: human liver microsomes; details: for IC50: dextromethorphan 10 μM
Experimental: as §1, with “CYP2D6/CYP2D. After 5.0 min of preincubation in the shaking water bath, the reaction was started with the addition of 1.0 mM NADPH. The incubated temperature at 37°C for 30 min. After the incubation, the enzyme reaction was stopped by cooling at −80°C, and 200 μL of acetonitrile and 20 μL of internal standard diazepam (200 ng/mL) were added for protein precipitation.” for “CYP2D6/CYP2D.”
as §4, §2, §3

[3] = 30 min preincubation with 1.0 mM NADPH
[4] = 30 min preincubation without NADPH
[5] = ratio IC50 (−) NADPH to IC50 (+) NADPH, read-out: IC50 fold shift

Ki (CYP2D6 [1]): 9.37 µM | IC50 at 30 min (CYP3A; [3]): 16.4 µM | IC50 at 30 min (CYP3A; [4]): 20.9 µM | IC50 at 30 min (CYP2C-3; [3]): 5.21 µM | IC50 at 30 min (CYP2C-3; [4]): 24.6 µM | IC50 (CYP3A4; [3]): 13.7 µM | IC50 (CYP3A4; [4]): 15.5 µM | IC50 (CYP2D6 [2]; [3]): 18.4 µM | IC50 (CYP2D6 [2]; [4]): 19.4 µM
Structure (SMILES): Cc1ccc(Sc2ccccc2N2CCNCC2)c(C)c1 [vortioxetine]
Inhibition type (CYP2D6 [1]; Lineweaver-Burk plot): competitively inhibited; also recorded: competitive inhibition | IC50 shift at 30 min (CYP3A; [5]): 1.28 | IC50 shift at 30 min (CYP2C-3; [5]): 4.72 | IC50 shift at 30 min (CYP3A4; human, human liver microsomes, probe midazolam (4 μM), ratio IC50 (−) NADPH to IC50 (+) NADPH, read-out: IC50 fold shift): 1.14 | IC50 shift at 30 min (CYP2D6 [2]; human, human liver microsomes, probe dextromethorphan (10 μM), ratio IC50 (−) NADPH to IC50 (+) NADPH, read-out: IC50 fold shift): 1.06
